These results are taken from patent publication US20060034823A1, “Method of production and use of crotoxin as an analgesic” (priority 2004, published 2006).

Assay [1] deals with animal models of pain. Nature of the assay: Crotamine in animal models of pain. In kind it is in vivo. Particulars: applicant's own studies vs published observations. An excerpt: The analgesic effect of snake venom proteins has been known since antiquity and several authors have pointed out the efficiency of the administration of crude cobra or rattlesnake venoms in the treatment of trigeminal neuralgias, tabetic and pain caused by tumors. In the cases of tumoral pains, the patients could be maintained without the administration of morphine in 70% of the cases. Obviously, at the time, crude venoms were employed without even an adequate knowledge of the source or mechanism. Sometimes venoms from cobras captured in India or South Africa were employed indistinctly (see, Haast, U.S. Pat. No. 4,341,762). […] With respect to crotamine, it was assumed that this represented the anti-nociceptive component of Crotalus durissus terrificus venom.

The subject of assay [2] is pain response in mice induced by Hot Plate. It is filed as in vivo, Kunming mice. To be noted: for Pain threshold, After drug administration: crotoxin 44.3 μg·kg−1; for Pain threshold, Baseline: before drugs; for Time lapse before pain response: Dolantin 40000 μg/kg ip; for Pain thresholds: Acetylsalicylic acid 400 mg·kg−1.
The conditions of assay [3]: in vivo; cited from earlier work.
Assay [4] concerns acetic acid writhing response in mice. In words: animal or person. It is filed as in vivo, Kunming mice. The protocol:
In the hot-plate test, a animal is positioned on a hot plate and is exposed to a standard heat source, and the time that the animal voluntarily endures the heat, prior to licking its paws, is recorded. In the acid-writhing test, the animal is injected into the intraperitoneal cavity and results in a writhing response. For the tail-flick test the animal's tail is subjected to heat or electrical stimulus and the time taken for the animal to remove its tail away from the noxious stimulus is recorded. Analgesics, particularly opioid analgesics, will prolong these times relative to controls.
The mice were randomly divided into 5 groups (n=10 in each group): saline control, acetylsalicylic acid 400 mg/kg^−1, crotoxin 66.5, 44.3, or 29.5 mcg.kg^−1 −1. Pain threshold was measured 3 h after drug administration.
The mice were randomly divided into 2 groups (n=10 in each group): saline control and crotoxin 0.3 mcg.kg^−1 −1. The effects of crotoxin on pain threshold were measured 1 hour after crotoxin or saline administration.
The mice were randomly divided into 4 groups (n=10 in each group): saline control, crotoxin 44.3 mcg.kg^−1 −1, acetylsalicylic acid (Ace) 300 mg/kg^−1, and crotoxin+acetylsalicylic acid. Acetylsalicylic acid 300 mg/kg^−1 (im) and crotoxin 44.3 mcg.kg^−1 −1 (im) were administrated at the same time. Pain threshold was determined 2 h after crotoxin administration.

“And” between values parts separate entries of the source, which are not always exact repeats. Equal entries are not always repeated. Structures can show the parent of a compound that is named as a salt. Where two headings read alike, the source gives them in different places.

“crotamine (YKQCHKKGGHCFPKEKICLPPSSDFGKMDCRWRWKCCKKGSG; UniProt Q9PWF3 23-64, looked up)”: in assay [1], the “antinociceptive properties” value is “failed to confirm these published observations”.
Consider `C=CCN1CC[C@]23c4c5ccc(O)c4O[C@H]2C(=O)CC[C@@]3(O)[C@H]1C5` [Naloxone, Naloxone hydrochloride], for which, in assay [2] (naloxone 3 mg·kg−1 or NS (i.p.) 2.5 hours after crotoxin, determined 30 minutes after naloxone), the “Pain threshold, After drug administration” value was found to be 19.04 ± 4.88 s. Besides, in assay [2] (naloxone 3 mg/kg (ip)), the “effect of naloxone alone on the pain threshold” value was “no significant influence”. Besides, in assay [2] (naloxone (ip)), the “effect on the analgesia induced by crotoxin” value is “had no effect”. The “Pain threshold, Baseline” value in assay [2] (naloxone study) is given as 16.97 ± 3.64 s.
For the compound `CN1[C@@H]2CC[C@H]1C[C@@H](OC(=O)C(CO)c1ccccc1)C2` (stereo partly shown) [Atropine, atropine], the “effect of atropine alone on the pain threshold” value in assay [2] (atropine 0.5 mg/kg (im)) was “no significant effect”. Besides, the “Pain threshold, Baseline” value in assay [2] (atropine study) amounted to 16.87 ± 3.10 s. In addition, in assay [2] (atropine 0.5 mg·kg−1 or NS (im) 1.5 h after crotoxin, determined 1.5 h after atropine), the “Pain threshold, After drug administration” value worked out at 18.46 ± 3.25 s.
For `CCOC(=O)C1(c2ccccc2)CCN(C)CC1` [Dolantin, Meperidine hydrochloride], the “Time lapse before pain response” value in assay [2] (30 min after drug, hydrochloride) is 56 s and 56.14 s; in assay [2] (60 min after drug) it was 55.49 s; in assay [2] (90 min after drug, hydrochloride) it was 36 s and 36.36 s; in assay [2] (120 min after drug, hydrochloride), 34 s and 34.03 s; in assay [2] (Pre-drug, hydrochloride), 13.2 s and 13.20 s. In addition, the “analgesic potency relative to morphine” value in assay [3] is “one-tenth as potent an analgesic as morphine”. Also, the duration in assay [3] was 2 to 4 h. Besides, the onset of activity in assay [3] was 10 to 45 min.
As to `CC(=O)Oc1ccccc1C(=O)O` [Acetylsalicylic acid, acetylsalicylic acid], in assay [4] (Acetylsalicylic acid 400 mg·kg−1, 3 h after drug administration), the “The number of writhings after administration” value is 8.80 ± 6.36 times/10 min. For the same compound, the inhibition (usually the percentage by which the read-out fell short of the control) at 400 mg/kg in assay [4] (Mus musculus, 3 h, read-out: Percentage inhibition compared with control group) is 70.1%. For the same compound, the “effect on the analgesic effects of crotoxin” value in assay [4] (acetylsalicylic acid 300 mg/kg (ip)) is reported as “significantly enhanced”. The “analgesic effect, acetylsalicylic acid study” value in assay [4] (acetylsalicylic acid 300 mg/kg, crotoxin 44.3 mcg/kg, given at the same time) is “significant analgesic effects”. In addition, the “The number of writhings” value in assay [4] (crotoxin 44.3 μg·kg−1 and acetylsalicylic acid (table: 0.3 mg·kg−1; text: 300 mg/kg) given at the same time, 2 h after crotoxin) was 12.13 ± 9.04 times/10 min. Further, the Pain thresholds is 28.12 ± 6.95 s in assay [2] (1 h after administration), 24.50 ± 14.14 s in assay [2] (2 h after administration), 26.22 ± 14.32 s in assay [2] (3 h after administration) and 17.36 ± 2.72 s in assay [2] (Baseline).
